Test results reported in ChEMBL document CHEMBL1201862, “PubChem BioAssay data set” (2004).
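Five compound concentrations were applied to cells in 96-well plates for 48 hours; endpoints were derived by simple linear interpolation of the resulting dose-response curve. GI50 is the concentration that inhibits growth by half.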 Activity calls are given as the source filed them. No stated cut-off is given here; in the data, active = GI50 up to about 1.1 µM and inactive = higher.

How the values were obtained:
Experiment in all cases: growth of human tumour cells (NCI), 48 h
[1] = tested on: MDA-N
[2] = tested on: CCRF-CEM
[3] = tested on: SNB-75
[4] = tested on: IGROV-1
[5] = tested on: SR
[6] = tested on: SK-MEL-28
[7] = tested on: UO-31
[8] = tested on: U-251
[9] = tested on: MDA-MB-231
[10] = tested on: T47D
[11] = tested on: TK-10
[12] = tested on: SF-539
[13] = tested on: SK-OV-3
[14] = tested on: SF-295
[15] = tested on: NCI-H522
[16] = tested on: OVCAR-8
[17] = tested on: SF-268
[18] = tested on: UACC-62
[19] = tested on: M14
[20] = tested on: HT-29

COc1cc(NS(C)(=O)=O)ccc1Nc1c2ccccc2nc2c1[nH]c1ccc(NC3OC(CO)C(O)C(O)C3O)cc12 (stereo not given)
GI50 [1]: 0.474 µM (active) | GI50 [2]: < 0.0132 µM (active) | GI50 [3]: 0.0251 µM (active) | GI50 [4]: 0.248 µM (active) | GI50 [5]: < 0.01 µM (active) | GI50 [6]: 0.122 µM (active) | GI50 [7]: 0.128 µM (active) | GI50 [8]: < 0.0201 µM (active) | GI50 [9]: 0.546 µM (active) | GI50 [10]: 0.0327 µM (active) | GI50 [11]: 0.197 µM (active) | GI50 [12]: < 0.01 µM (active) | GI50 [13]: 0.0173 µM (active) | GI50 [14]: < 0.0139 µM (active) | GI50 [15]: 0.0923 µM (active) | GI50 [16]: 0.0504 µM (active) | GI50 [17]: 0.018 µM (active) | GI50 [18]: 0.0213 µM (active) | GI50 [19]: 0.0399 µM (active) | GI50 [20]: 0.159 µM (active)

CCCC[C@@H](C)/C=C1\CN2CCC[C@H]2[C@@](C)(OCc2ccccc2)[C@@H]1O
GI50 [1]: > 44 µM (inactive) | GI50 [2]: > 50 µM (inactive) | GI50 [3]: > 32.3 µM (inactive) | GI50 [4]: > 30.6 µM (inactive) | GI50 [5]: > 50 µM (inactive) | GI50 [6]: > 43 µM (inactive) | GI50 [7]: > 13.2 µM (inactive) | GI50 [8]: > 34.4 µM (inactive) | GI50 [9]: > 50 µM (inactive) | GI50 [10]: 8.79 µM (inactive) | GI50 [11]: > 38.5 µM (inactive) | GI50 [12]: > 22.2 µM (inactive) | GI50 [13]: > 50 µM (inactive) | GI50 [14]: > 50 µM (inactive) | GI50 [15]: > 27.9 µM (inactive) | GI50 [16]: > 47.4 µM (inactive) | GI50 [17]: > 29.4 µM (inactive) | GI50 [18]: > 50 µM (inactive) | GI50 [19]: > 50 µM (inactive) | GI50 [20]: > 50 µM (inactive)

O=[N+]([O-])/C(C(Cl)=C(Cl)Cl)=C(/Sc1ccccc1)N1CCCCC1
GI50 [1]: > 61.5 µM (inactive) | GI50 [2]: 4.74 µM (inactive) | GI50 [3]: > 100 µM (inactive) | GI50 [4]: 16.5 µM (inactive) | GI50 [5]: 2.79 µM (inactive) | GI50 [6]: > 100 µM (inactive) | GI50 [7]: > 61.5 µM (inactive) | GI50 [8]: > 100 µM (inactive) | GI50 [9]: > 61.5 µM (inactive) | GI50 [10]: 11.9 µM (inactive) | GI50 [11]: > 100 µM (inactive) | GI50 [12]: > 100 µM (inactive) | GI50 [13]: 34.1 µM (inactive) | GI50 [14]: 43.1 µM (inactive) | GI50 [15]: 13.6 µM (inactive) | GI50 [16]: > 58.2 µM (inactive) | GI50 [17]: > 45.6 µM (inactive) | GI50 [18]: 13.9 µM (inactive) | GI50 [19]: > 69.2 µM (inactive) | GI50 [20]: > 100 µM (inactive)
